Measurements taken from patent publication US8198061B2, “Acetylcholinesterase gene responsible for insecticide resistance and applications thereof” (priority 2002, dated 2012).
pKd: −log10 of the molar value.

Legend:
[1] = biological target: AChE; conditions: Abramson et al., Mol. Pharmacol., 1989, 36, 349; read-out: apparent affinity; cited from earlier work
[2] = tested on: C. pipiens larvae; assay: Larval mortality on exposure to propoxur (back crosses, ace-1 linkage study); type: in vivo, Culex pipiens
Experimental: With the females being indicated first, F1 crosses (S×R) and back crosses (F1×S-LAB and S-LAB×F1) were obtained by mass crossing of adults. A few larvae derived from the back crosses were treated with a dose of carbamate (propoxur, 4 mg/l) which kills 100% of sensitive larvae. The linkage between ace-1 and propoxur resistance was studied by RFLP in the surviving larvae, based on a 320 bp PCR product making it possible to identify the S and R alleles. The experiments were carried out independently, with S=SA1, S=SA4 and S=EDIT.
The linkage between the ace-1 gene and propoxur resistance was studied, in triplicate, in the following way: larvae from a backcross (S×R)×S were treated for a dose that is lethal for sensitive individuals and the ace-1 genotype was analyzed in the survivors, by PCR-RFLP.

[3] = biological target: T1, Culex pipiens AChE1, sensitive S-LAB strain (glycine at position 119) (Culex pipiens, UniProt Q86GC8); assay: Acetylcholinesterase activity of recombinant sensitive AChE1 (S2 cell extracts) with propoxur; type: biochemical; conditions: 10^−3 M of propoxur
T1 construct: The cDNAs encoding the AChE1s of, respectively, the strain S-LAB and the strain SR were cloned in the eukaryotic expression vector pAc5.1/V5-His; V5-His (from the vector pAc5.1/V5-His); made in house; host or cells: Drosophila Schneider S2 cells, transiently transfected; Triton X-100 cell extract, not purified
Text: (§1) The cDNAs encoding the AChE1s of, respectively, the strain S-LAB and the strain SR were cloned in the eukaryotic expression vector pAc5.1/V5-His (INVITROGEN), according to conventional recombinant DNA techniques, by following standard protocols such as those described in Current Protocols in Molecular Biology, mentioned above. Drosophila cells (Schneider S2 cells) were transfected with the recombinant vectors thus obtained, using the Fugen® reagent (ROCHE), according to the manufacturer's instructions. 24 hours after transfection, the cells were harvested by centrifugation and then lyzed in a 0.25M phosphate buffer containing 1% Triton X-100. The acetylcholinesterase activity of the cell extracts obtained was measured, in the presence or in the absence of insecticide (propoxur), by the method as described in Bourguet et al., Biochemical Genetics, 1996, 34, 351-362.
(§2) The recombinant AChE1s of, respectively, the strain S-LAB and the strain SR were expressed in insect cells and the acetylcholinesterase activity was measured using cell extracts as described in example 1.

[4] = biological target: T2, Culex pipiens AChE1, resistant SR strain (serine at position 119, G119S) (Culex pipiens, UniProt Q86GC8, G247S); assay: Acetylcholinesterase activity of recombinant resistant AChE1 (S2 cell extracts) with propoxur; type: biochemical; conditions: glycine247(119)→serine247(119) mutant (SR); 10^−4 M and 10^−2 M of propoxur; FIG. 10
T2 construct: The cDNAs encoding the AChE1s of, respectively, the strain S-LAB and the strain SR were cloned in the eukaryotic expression vector pAc5.1/V5-His; V5-His (from the vector pAc5.1/V5-His); made in house; host or cells: Drosophila Schneider S2 cells, transiently transfected; Triton X-100 cell extract, not purified
Text: as §1, §2

Compound | pKd [1] | larvae killed in back crosses ([2]; larvae from backcross (S×R)×S, dose lethal for sensitive individuals, all back crosses) | sensitive larvae killed ([2]; sensitive larvae, propoxur 4 mg/l) | activity of the AChE1 inhibited [3] | sensitivity of the acetylcholinesterase to the insecticide [4]
C=C1CCCC(C)(C)C1C/C=C(C=O)\C=C\OC(C)=O (centres unmarked) [onchidal] | 3.52 | – | – | – | –
CNC(=O)Oc1ccccc1OC(C)C [propoxur] | – | 50% | 100% | 90% | insensitive
